For test [1], the target named is Acetylcholinesterase (Homo sapiens, UniProt P22303). Nature of the test: Inhibition of human recombinant AChE by Ellman's method. For orientation: DTNB colorimetry detects thiols as they appear.
In test [2] the target is Cholinesterase (Homo sapiens, UniProt P06276). Kind of test: Inhibition of human serum BChE by Ellman's method.
Chain of Cholinesterase (P06276 whole entry): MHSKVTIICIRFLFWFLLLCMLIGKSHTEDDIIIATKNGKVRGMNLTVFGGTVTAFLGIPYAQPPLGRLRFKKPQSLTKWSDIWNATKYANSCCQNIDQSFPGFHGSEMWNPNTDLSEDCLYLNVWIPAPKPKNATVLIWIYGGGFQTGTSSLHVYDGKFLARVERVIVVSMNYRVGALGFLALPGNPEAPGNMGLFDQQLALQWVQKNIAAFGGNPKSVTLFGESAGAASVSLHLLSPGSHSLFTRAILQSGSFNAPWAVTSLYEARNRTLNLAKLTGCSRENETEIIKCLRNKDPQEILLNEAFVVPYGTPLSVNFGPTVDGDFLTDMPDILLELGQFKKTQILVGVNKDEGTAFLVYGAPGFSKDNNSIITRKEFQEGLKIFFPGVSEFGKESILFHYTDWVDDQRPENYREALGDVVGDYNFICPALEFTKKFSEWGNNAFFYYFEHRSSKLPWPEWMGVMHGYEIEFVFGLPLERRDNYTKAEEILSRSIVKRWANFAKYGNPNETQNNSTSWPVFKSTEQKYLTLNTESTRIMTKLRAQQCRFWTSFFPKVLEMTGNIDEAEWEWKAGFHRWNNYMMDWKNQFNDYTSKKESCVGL

Chain of Acetylcholinesterase (P22303 whole entry): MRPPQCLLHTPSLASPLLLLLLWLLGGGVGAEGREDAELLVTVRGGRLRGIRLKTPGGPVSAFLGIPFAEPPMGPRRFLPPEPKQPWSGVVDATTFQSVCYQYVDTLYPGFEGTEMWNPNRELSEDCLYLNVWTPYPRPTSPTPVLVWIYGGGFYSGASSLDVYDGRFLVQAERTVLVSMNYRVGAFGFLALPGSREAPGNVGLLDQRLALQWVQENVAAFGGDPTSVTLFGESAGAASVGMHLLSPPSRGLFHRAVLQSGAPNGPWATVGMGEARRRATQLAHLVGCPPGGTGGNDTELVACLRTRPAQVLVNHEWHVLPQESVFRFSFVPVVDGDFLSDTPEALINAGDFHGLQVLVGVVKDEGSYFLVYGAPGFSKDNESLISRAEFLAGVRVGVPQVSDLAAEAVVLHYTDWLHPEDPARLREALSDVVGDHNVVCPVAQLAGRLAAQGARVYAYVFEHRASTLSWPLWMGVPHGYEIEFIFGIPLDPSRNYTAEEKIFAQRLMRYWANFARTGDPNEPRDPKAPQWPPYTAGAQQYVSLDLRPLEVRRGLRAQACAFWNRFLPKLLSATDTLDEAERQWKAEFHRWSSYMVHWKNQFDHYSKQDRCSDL

As for `CN(Cc1ccccc1)Cc1ccc(C(=O)c2ccc3ccccc3c2)cc1`, the IC50 (commonly the concentration at which inhibition is half-maximal) in test [1] was 19.6 µM.

For `COc1ccc(C(=O)c2ccc(CN3CCc4ccccc4C3)cc2)cc1OC`, the IC50 in test [1] worked out at 54 µM.

With `COc1ccc(C(=O)c2ccc(/C=C/CN(C)Cc3ccccc3)cc2)cc1OC`, the figures for the IC50 in test [2] and in test [1] were 44 µM and 2.1 µM, respectively.

With `C#CCN(C)Cc1ccc(C(=O)c2ccc(OC)c(OC)c2)cc1`, the IC50 in test [1] is 27.2 µM.

For the compound `COc1ccc(C(=O)c2ccc(CN(CCN(C)C)Cc3ccccc3)cc2)cc1OC`, the IC50 in test [2] stood at 33.2 µM; in test [1], 8.64 µM.

As to `COc1ccc(C(=O)c2ccc(CN(C)Cc3cccc([N+](=O)[O-])c3)cc2)cc1OC`, the values for the IC50 in test [2] and in test [1] were more than 100 µM and 4.27 µM, respectively.

For the compound `COc1ccc(C(=O)c2ccc(CN3CCOCC3)cc2)cc1OC`, in test [1], the half-maximal inhibitory concentration (IC50) is 345 µM.

As for `COc1ccc(C(=O)c2ccc(CN(C)CCN(C)C)cc2)cc1OC`, the IC50 in test [2] came out at 88.8 µM; in test [1] it was 2.37 µM.

With `COc1ccc(C(=O)c2ccc(CN(C)Cc3ccccc3)cc2)cc1`, the IC50 in test [2] is more than 100 µM; in test [1], 1.82 µM.

Take `COc1ccccc1CN(C)Cc1ccc(C(=O)c2ccc(OC)c(OC)c2)cc1`: the values for the IC50 in test [2] and in test [1] were 16.2 µM and 3.71 µM, respectively.

Take `COc1ccc(C(=O)c2ccc(CN(CCO)Cc3ccccc3)cc2)cc1OC`: the IC50 was 172 µM in test [2] and 1.41 µM in test [1].

On to `CCN(Cc1ccccc1)Cc1ccc(C(=O)c2ccc(OC)c(OC)c2)cc1`, for which the values for the IC50 in test [2] and in test [1] were 71.5 µM and 0.57 µM, respectively.

For the compound `COc1ccc(C(=O)c2ccc(CN(C)Cc3cccc(C)c3)cc2)cc1OC`, the concentration for half-maximal inhibition (IC50) was determined as 125 µM in test [2] and 1.65 µM in test [1].

As to `COc1ccc(C(=O)c2ccc(CN(C)Cc3ccccc3)cc2)cc1OC`, the IC50 was found to be 60.7 µM in test [2] and 0.46 µM in test [1].

On to `CCN(CC)Cc1ccc(C(=O)c2ccc(OC)c(OC)c2)cc1`, for which the IC50 in test [1] worked out at 36.8 µM.

Take `COc1ccc(C(=O)c2ccc(CN(C)Cc3ccccc3)cc2)cc1F`: the IC50 was more than 100 µM in test [2] and 1.57 µM in test [1].
